Source: US9802928B2 (Merck Sharp & Dohme Corp., priority 2013, dated 2017)

Assays:
[1] = target: purified human autoBACE-2 (Homo sapiens (Human), UniProt Q9Y5Z0); assay: BACE-2 Assay (BACE-HTRF assay); assay type: biochemical; conditions: Ki calculated from IC50 using the Cheng-Prusoff equation; QSY7-EISEVNLDAEFC-Eu-amide substrate, pH 5.0; read-out: BACE2 Ki
Method: Inhibitor IC50s at purified human autoBACE-2 are determined in a time-resolved endpoint proteolysis assay that measures hydrolysis of the QSY7-EISEVNLDAEFC-Eu-amide FRET peptide substrate (BACE-HTRF assay). BACE-mediated hydrolysis of this peptide results in an increase in relative fluorescence (RFU) at 620 nm after excitation with 320 nm light. Inhibitor compounds, prepared at 3× the desired final concentration in 1×BACE assay buffer (20 mM sodium acetate pH 5.0, 10% glycerol, 0.1% Brij-35) supplemented with 7.5% DMSO are pre-incubated with an equal volume of autoBACE-2 enzyme diluted in 1×BACE assay buffer (final enzyme concentration 1 nM) in black 384-well NUNC plates for 30 minutes at 30° C. The assay is initiated by addition of an equal volume of the QSY7-EISEVNLDAEFC-Eu-amide substrate (200 nM final concentration, Km=8 μM […] for autoBACE-2) prepared in 1×BACE assay buffer supplemented with 7.5% DMSO and incubated for 90 minutes at 30° C. DMSO is present at 5% final concentration in the assay. Following laser excitation of sample wells at 320 nm, the fluorescence signal at 620 nm is collected for 400 ms following a 50 μs delay on a RUBYstar HTRF plate reader (BMG Labtechnologies). Raw RFU data is normalized to maximum (1.0 nM BACE/DMSO) and minimum (no enzyme/DMSO) RFU values. IC50s are determined by nonlinear regression analysis (sigmoidal dose response, variable slope) of percent inhibition data with minimum and maximum values set to 0 and 100 percent respectively. Similar IC50s are obtained when using raw RFU data. The Ki values are calculated from the IC50 using the Cheng-Prusoff equation.

[2] = target: soluble human BACE1 catalytic domain (Homo sapiens (Human), UniProt P56817); assay: BACE1 HTRF FRET Assay; assay type: biochemical; conditions: Ki calculated from IC50 using the Cheng-Prusoff equation; QSY7-APPswe-Eu substrate, pH 5.0
Sequence of soluble human BACE1 catalytic domain (P56817 75-416): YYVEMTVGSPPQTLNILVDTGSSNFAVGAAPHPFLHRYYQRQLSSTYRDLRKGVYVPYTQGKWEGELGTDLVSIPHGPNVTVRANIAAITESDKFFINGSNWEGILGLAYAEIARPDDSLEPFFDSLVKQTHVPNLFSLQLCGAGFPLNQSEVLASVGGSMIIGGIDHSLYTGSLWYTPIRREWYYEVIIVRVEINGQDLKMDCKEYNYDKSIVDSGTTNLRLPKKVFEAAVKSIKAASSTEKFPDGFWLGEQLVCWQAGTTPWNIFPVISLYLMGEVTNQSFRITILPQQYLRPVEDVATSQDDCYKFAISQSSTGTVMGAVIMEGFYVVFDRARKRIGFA
Excerpt: Na^+-Acetate pH 5.0; 1% Brij-35; Glycerol; Dimethyl Sulfoxide (DMSO); Recombinant human soluble BACE1 catalytic domain (>95% pure); APP Swedish mutant peptide substrate (QSY7-APP^swe-Eu): QSY7-[…]-Europium-amide.
A homogeneous time-resolved FRET assay can be used to determine IC50 values for inhibitors of the soluble human BACE1 catalytic domain. This assay monitors the increase of 620 nm fluorescence that resulted from BACE1 cleavage of an APPswedish APP^swe mutant peptide FRET substrate (QSY7-[…]-Europium-amide). This substrate contains an N-terminal QSY7 moiety that serves as a quencher of the C-terminal Europium fluorophore (620 nm Em). In the absence of enzyme activity, 620 nm fluorescence is low in the assay and increased linearly over 3 hours in the presence of uninhibited BACE1 enzyme Inhibition of BACE1 cleavage of the QSY7-APP^swe-Eu substrate by inhibitors is manifested as a suppression of 620 nm fluorescence.
Varying concentrations of inhibitors at 3× the final desired concentration in a volume of 10 ul are preincubated with purified human BACE1 catalytic domain (3 nM in 10 μl) for 30 minutes at 30° C. in reaction buffer containing 20 mM Na-Acetate pH 5.0, 10% glycerol, 0.1% Brij-35 and 7.5% DSMO. Reactions are initiated by addition of 10 μl of 600 nM QSY7-APP^swe-Eu substrate (200 nM final) to give a final reaction volume of 30 μl in a 384 well Nunc HTRF plate. The reactions are incubated at 30° C. for 1.5 hours. The 620 nm fluorescence is then read on a Rubystar HTRF plate reader (BMG Labtechnologies) using a 50 millisecond delay followed by a 400 millisecond acquisition time window. Inhibitor IC50 values are derived from non-linear regression analysis of concentration response curves. Ki values are then calculated from IC50 values using the Cheng-Prusoff equation using a previously determined […] of 8 μM for the QSY7-APP^swe-Eu substrate at BACE1.

Sequence of purified human autoBACE-2 (Q9Y5Z0 63-473 limits assumed): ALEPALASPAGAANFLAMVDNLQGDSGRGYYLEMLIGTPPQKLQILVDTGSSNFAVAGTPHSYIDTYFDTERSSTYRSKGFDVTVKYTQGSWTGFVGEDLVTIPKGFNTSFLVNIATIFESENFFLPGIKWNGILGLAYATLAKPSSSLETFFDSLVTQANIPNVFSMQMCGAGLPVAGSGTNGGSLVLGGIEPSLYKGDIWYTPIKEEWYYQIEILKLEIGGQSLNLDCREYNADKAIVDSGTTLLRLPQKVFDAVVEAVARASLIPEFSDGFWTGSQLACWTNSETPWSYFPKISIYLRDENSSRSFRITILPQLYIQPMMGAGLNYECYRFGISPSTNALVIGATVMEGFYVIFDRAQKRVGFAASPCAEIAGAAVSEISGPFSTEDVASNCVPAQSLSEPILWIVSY

Row | Structure (SMILES) | Ki [1] [nM] | Ki [2] [nM]
1 | Cc1cc(C#N)cnc1C(=O)Nc1ccc(F)c([C@@]2(C)NC(=N)N(C)S(=O)(=O)C23CC3)c1 [Example 1k, 5-cyano-N-{4-fluoro-3-[(8R)-6-imino-5,8-dimethyl-4,4-dioxido-4-thia-5,7-diazaspiro[2.5]oct-8-yl]phenyl}-3-methylpyridine-2-carboxamide] | 5 | 2
2 | COc1cnc(C(=O)Nc2ccc(F)c([C@@]3(C)NC(=N)N(C)S(=O)(=O)C34CC4)c2)cn1 [Example 1e] | 56 | 20
3 | CN1C(=N)N[C@](C)(c2cc(NC(=O)c3cn4ccsc4n3)ccc2F)C2(CC2)S1(=O)=O [Example 1v, N-{4-fluoro-3-[(8R)-6-imino-5,8-dimethyl-4,4-dioxido-4-thia-5,7-diazaspiro[2.5]oct-8-yl]phenyl}imidazo[2,1-b][1,3]thiazole-6-carboxamide] | 63 | 232
4 | CN1C(=N)N[C@](C)(c2cc(NC(=O)c3ccc(OC(F)F)cn3)ccc2F)C2(CC2)S1(=O)=O [Example 1s, 5-(difluoromethoxy)-N-{4-fluoro-3-[(8R)-6-imino-5,8-dimethyl-4,4-dioxido-4-thia-5,7-diazaspiro[2.5]oct-8-yl]phenyl}pyridine-2-carboxamide] | 46 | 8
5 | CN1C(=N)N[C@](C)(c2cc(NC(=O)c3ccn(C(F)F)n3)ccc2F)C2(CC2)S1(=O)=O [Example 1l, 1-(difluoromethyl)-N-{4-fluoro-3-[(8R)-6-imino-5,8-dimethyl-4,4-dioxido-4-thia-5,7-diazaspiro[2.5]oct-8-yl]phenyl}-1H-pyrazole-3-carboxamide] | 2 | 5
6 | Cc1cc(C(=O)Nc2ccc(F)c([C@@]3(C)NC(=N)N(C)S(=O)(=O)C34CC4)c2)no1 [Example 1n, N-{4-fluoro-3-[(8R)-6-imino-5,8-dimethyl-4,4-dioxido-4-thia-5,7-diazaspiro[2.5]oct-8-yl]phenyl}-5-methylisoxazole-3-carboxamide] | 220 | 620
7 | COc1ccc(C(=O)Nc2ccc(F)c([C@@]3(C)NC(=N)N(C)S(=O)(=O)C34CC4)c2)nc1 [Example 1a, N-{4-fluoro-3-[(8R)-6-imino-5,8-dimethyl-4,4-dioxido-4-thia-5,7-diazaspiro[2.5]oct-8-yl]phenyl}-5-methoxypyridine-2-carboxamide] | 17 | 18
8 | CN1C(=N)N[C@](C)(c2cc(NC(=O)c3ccc(C#N)cn3)ccc2F)C2(CC2)S1(=O)=O [Example 1g, 5-cyano-N-{4-fluoro-3-[(8R)-6-imino-5,8-dimethyl-4,4-dioxido-4-thia-5,7-diazaspiro[2.5]oct-8-yl]phenyl}pyridine-2-carboxamide] | 17 | 3
9 | CN1C(=N)N[C@](C)(c2cc(NC(=O)c3cnc(C(F)(F)F)cn3)ccc2F)C2(CC2)S1(=O)=O [Example 1p, 5-N-{4-fluoro-3-[(8R)-6-imino-5,8-dimethyl-4,4-dioxido-4-thia-5,7-diazaspiro[2.5]oct-8-yl]phenyl}-5-(trifluoromethyl)pyrazine-2-carboxamide] | 346 | 58
10 | CN1C(=N)N[C@](C)(c2cc(NC(=O)c3cnc(OCCF)cn3)ccc2F)C2(CC2)S1(=O)=O [Example 1t, 5-(2-fluoroethoxy)-N-{4-fluoro-3-[(8R)-6-imino-5,8-dimethyl-4,4-dioxido-4-thia-5,7-diazaspiro[2.5]oct-8-yl]phenyl}pyrazine-2-carboxamide] | 285 | 42
11 | Cc1nc(C(=O)Nc2ccc(F)c([C@@]3(C)NC(=N)N(C)S(=O)(=O)C34CC4)c2)c(C)o1 [Example 1u, N-{4-fluoro-3-[(8R)-6-imino-5,8-dimethyl-4,4-dioxido-4-thia-5,7-diazaspiro[2.5]oct-8-yl]phenyl}-2,5-dimethyl-1,3-oxazole-4-carboxamide] | 8 | 25
12 | CN1C(=N)N[C@](C)(c2cc(NC(=O)c3cn(C)nc3C(F)(F)F)ccc2F)C2(CC2)S1(=O)=O [Example 1b, N-{4-fluoro-3-[(8R)-6-imino-5,8-dimethyl-4,4-dioxido-4-thia-5,7-diazaspiro[2.5]oct-8-yl]phenyl}-1-methyl-3-(trifluoromethyl)-1H-pyrazole-4-carboxamide] | 3250 | 4940
13 | CN1C(=N)N[C@](C)(c2cc(NC(=O)c3ccc(Cl)cn3)ccc2F)C2(CC2)S1(=O)=O [Example 2, 5-chloro-N-{4-fluoro-3-[(8R)-6-imino-5,8-dimethyl-4,4-dioxido-4-thia-5,7-diazaspiro[2.5]oct-8-yl]phenyl}pyridine-2-carboxamide] | 2 | 5
14 | CN1C(=N)N[C@](C)(c2cc(NC(=O)c3ncc(C(F)(F)F)cn3)ccc2F)C2(CC2)S1(=O)=O [Example 1i, N-{4-fluoro-3-[(8R)-6-imino-5,8-dimethyl-4,4-dioxido-4-thia-5,7-diazaspiro[2.5]oct-8-yl]phenyl}-5-(trifluoromethyl)pyrimidine-2-carboxamide] | 106 | 47
15 | CN1C(=N)N[C@](C)(c2cc(NC(=O)c3ncc(Cl)cc3F)ccc2F)C2(CC2)S1(=O)=O [Example 1o, 5-chloro-3-fluoro-N-{4-fluoro-3-[(8R)-6-imino-5,8-dimethyl-4,4-dioxido-4-thia-5,7-diazaspiro[2.5]oct-8-yl]phenyl}pyridine-2-carboxamide] | 3 | 6
16 | CN1C(=N)N[C@](C)(c2cc(NC(=O)c3cnc(OCC(F)(F)F)cn3)ccc2F)C2(CC2)S1(=O)=O [Example 1w, N-{4-fluoro-3-[(8R)-6-imino-5,8-dimethyl-4,4-dioxido-4-thia-5,7-diazaspiro[2.5]oct-8-yl]phenyl}-5-(2,2,2-trifluoroethoxy)pyrazine-2-carboxamide] | 159 | 6
17 | COc1cnc(C(=O)Nc2ccc(F)c([C@@]3(C)NC(=N)N(C)S(=O)(=O)C34CC4)c2)c(C)c1 [Example 1j] | 10 | 22
18 | COc1cnc(C(=O)Nc2ccc(F)c([C@@]3(C)NC(=N)N(C)S(=O)(=O)C34CC4)c2)c(C)n1 [Example 1q, N-{4-fluoro-3-[(8R)-6-imino-5,8-dimethyl-4,4-dioxido-4-thia-5,7-diazaspiro[2.5]oct-8-yl]phenyl}-5-methoxy-3-methylpyrazine-2-carboxamide] | 41 | 38
19 | CN1C(=N)N[C@](C)(c2cc(NC(=O)c3ccc(C(F)(F)F)cn3)ccc2F)C2(CC2)S1(=O)=O [Example 1f, N-{4-fluoro-3-[(8R)-6-imino-5,8-dimethyl-4,4-dioxido-4-thia-5,7-diazaspiro[2.5]oct-8-yl]phenyl}-5-(trifluoromethyl)pyridine-2-carboxamide] | 55 | 8
20 | C#CCOc1ccc(C(=O)Nc2ccc(F)c([C@@]3(C)NC(=N)N(C)S(=O)(=O)C34CC4)c2)nc1 [Example 1c, N-{4-fluoro-3-[(8R)-6-imino-5,8-dimethyl-4,4-dioxido-4-thia-5,7-diazaspiro[2.5]oct-8-yl]phenyl}-5-(prop-2-yn-1-yloxy)pyridine-2-carboxamide] | 95 | 6
21 | CN1C(=N)N[C@](C)(c2cc(NC(=O)c3cn4ccc(C#N)cc4n3)ccc2F)C2(CC2)S1(=O)=O [Example 1m, 7-cyano-N-{4-fluoro-3-[(8R)-6-imino-5,8-dimethyl-4,4-dioxido-4-thia-5,7-diazaspiro[2.5]oct-8-yl]phenyl}imidazo[1,2-a]pyridine-2-carboxamide] | 1640 | 5500
